This is an account of results in patent publication US20130317029A1 (PORTOLA PHARMACEUTICALS, INC., priority 2010, published 2013).

This test has as its target T1, full length active recombinant SYK enzyme (Homo sapiens, UniProt P43405).
T1 construct: full length active recombinant SYK enzyme (Millipore, Calif.); purchased Millipore
As to the kind of experiment: Inhibition of Syk tyrosine phosphorylation activity (LANCE TR-FRET kinase assay). It is filed as biochemical. The source says:
This example illustrates methods for evaluating the compounds of the invention, along with results obtained for such assays. The in vitro and in vivo human Syk activities of the inventive compounds can be determined by various procedures known in the art, such as a test for their ability to inhibit the activity of human plasma Syk. […] The IC50 value is the concentration (in nM) of the compound required to provide 50% inhibition of human Syk proteolytic activity.
Potency of candidate molecules for inhibiting Syk tyrosine phosphorylation activity is assessed by measuring the ability of a test compound to inhibit Syk-mediated tyrosine phosphorylation of a Syk-specific substrate.
SYK tyrosine phosphorylation activity is measured using the LANCE™ Technology developed by Perkin Elmer Life and Analytical Sciences (Boston, Mass.). LANCE™ refers to homogeneous time resolved fluorometry applications using techniques such as time-resolved fluorescence resonance energy transfer assay (TR-FRET) (see generally for procedures in Perkin Elmer Application Note—How to Optimize a Tyrosine Kinase Assay Using Time Resolved Fluorescence-Based LANCE Detection, wwww.perkinelmer.com/lifesciences). The assay principle involves detection of a phosphorylated substrate using energy transfer from a phosphospecific europium-labeled antibody to streptavidin-allophycocyanin as an acceptor.
To test the ability of candidate molecules to inhibit SYK tyrosine phosphorylation activity, molecules are reconstituted in 30% DMSO and serially diluted 1:3 with the final dilution containing DMSO in the absence of the candidate molecule. The final DMSO concentration in the assay is 3%. Kinase assays are performed as a two part reaction. The first reaction is a kinase reaction and which comprises of a candidate molecule, full length active recombinant SYK enzyme (Millipore, Calif.) and biotin-labeled SYK-specific substrate biotin-[…]-OH. The second reaction involves termination of the kinase reaction and the simultaneous addition of the detection reagents-europium-labeled anti-phosphotyrosine reagent (Eu-W1024-PY100, Perkin Elmer, Boston, Mass.) and Streptavidin-Allophycocyanin detection reagent (SA-APC, Prozyme, Calif.). The kinase reaction is performed in a black U-bottom 96-well microtitre plate. The final reaction volume is 50 μL and contains a final concentration of 1 nM active SYK enzyme, 550 nM SYK-substrate, and 100 μM ATP diluted in a buffer containing 50 mM Tris pH 7.5, 5 mM MgCl2, and 1 mM DTT. The reaction is allowed to proceed for 1 hour at room temperature. The quench buffer contains 100 mM Tris pH 7.5, 300 mM NaCl2, 20 mM EDTA, 0.02% Brij35, and 0.5% BSA. The detection reagents are added to the reaction mixture at the following dilutions-1:500 for Eu-W1024-PY100 and 1:250 for SA-APC. The kinase reaction is terminated by the addition of 50 μL quench buffer containing the detection reagents. The detection is allowed to proceed for 1 hr at room temperature. Detection of the phosphorlated substrate in the absence and presence of inhibitors is measured in the TR-FRET instrument, Analyst HT (Molecular Probes, Sunnyvale, Calif.) and the condition for measurements are set up using CriterionHost Release 2.0 (Molecular Probes, Sunnyvale, Calif.). The settings used are a follows: excitation 360 nm, emission 665-7.5 nm, beam splitter 350 nm 50/50, flash 100 pulses, delay 60 us, integration 400 us, z-height 2 mm. Inhibition of SYK-tyrosine kinase activity is calculated as the maximum response observed in the presence of inhibitor, compared to that in the absence of inhibitor. IC50s were derived by non-linear regression analysis.
As to `CC(=O)N1CCN(c2ccc(Nc3nc(Nc4ccc(N5CCN(C(C)=O)CC5)cc4)c(C(N)=O)c(=O)[nH]3)cc2)CC1` [Example 46, 2,4-bis(4-(4-acetylpiperazin-1-yl)phenylamino)-6-oxo-1,6-dihydropyrimidine-5-carboxamide], the IC50 is greater than 1 µM.
Then `CC(=O)N1CCN(c2ccc(Nc3nc(NC4CCC4)c(C(N)=O)c(=O)[nH]3)cc2)CC1` [Example 47, 2-(4-(4-acetylpiperazin-1-yl)phenylamino)-4-(cyclobutylamino)-6-oxo-1,6-dihydropyrimidine-5-carboxamide], with greater than 1 µM; and `NC(=O)c1c(O)nc(NC2CCCCC2N)nc1NC1CC1` (centres unmarked) [Example 48, 2-(2-aminocyclohexylamino)-4-(cyclopropylamino)-6-hydroxypyrimidine-5-carboxamide], with greater than 1 µM.
For `Cc1cc(C)cc(Nc2nc(NCC(N)=O)[nH]c(=O)c2C(N)=O)c1` [Example 49, 2-(2-amino-2-oxoethylamino)-4-(3,5-dimethylphenylamino)-6-oxo-1,6-dihydropyrimidine-5-carboxamide] the value was 0.01 to 0.1 µM.
For `COc1nc(NCC(N)=O)nc(Nc2cc(C)cc(C)c2)c1C(N)=O` [Example 50, 2-(2-amino-2-oxoethylamino)-4-(3,5-dimethylphenylamino)-6-methoxypyrimidine-5-carboxamide] the value was 0.1 to 1 µM.
Consider `C[C@H](N)CNc1nc(Nc2ccc3ncccc3c2)c(C(N)=O)c(=O)[nH]1` [Example 51, (S)-2-(2-aminopropylamino)-6-oxo-4-(quinolin-6-ylamino)-1,6-dihydropyrimidine-5-carboxamide], for which the IC50 lay in the range of 0.001 to 0.01 µM.
For the compound `CCNc1nc(Nc2cccc(C)c2)c(C(N)=O)c(OCCCN)n1` [Example 52, 4-(m-toluidino)-6-(3-aminopropoxy)-2-(ethylamino)pyrimidine-5-carboxamide], the IC50 is greater than 1 µM.
For `Cc1cccc(Nc2nc(NC[C@H](C)N)nc(OCCO)c2C(N)=O)c1` [Example 53, (S)-4-(m-toluidino)-2-(2-aminopropylamino)-6-(2-hydroxyethoxy)pyrimidine-5-carboxamide] the value was greater than 1 µM; for `Cc1cc(C)cc(Nc2nc(NC[C@H](C)N)[nH]c(=O)c2C(N)=O)c1` [Example 54, (S)-2-(2-aminopropylamino)-4-(3,5-dimethylphenylamino)-6-oxo-1,6-dihydropyrimidine-5-carboxamide], greater than 1 µM; for `Cc1cc(C)cc(Nc2nc(N[C@H](CC(C)C)C(N)=O)[nH]c(=O)c2C(N)=O)c1` [Example 55, (R)-2-(1-amino-4-methyl-1-oxopentan-2-ylamino)-4-(3,5-dimethylphenylamino)-6-oxo-1,6-dihydropyrimidine-5-carboxamide], greater than 1 µM.
In the case of `Cc1cc(C)cc(Nc2nc(N[C@H](C)C(N)=O)[nH]c(=O)c2C(N)=O)c1` [Example 56, (R)-2-(1-amino-1-oxopropan-2-ylamino)-4-(3,5-dimethylphenylamino)-6-oxo-1,6-dihydropyrimidine-5-carboxamide], the IC50 is greater than 1 µM.
Then `Cc1cc(C)cc(Nc2nc(NC3CCCCC3N)[nH]c(=O)c2C(N)=O)c1` (centres unmarked) [Example 57, 2-(2-aminocyclohexylamino)-4-(3,5-dimethylphenylamino)-6-oxo-1,6-dihydropyrimidine-5-carboxamide], with 0.1 to 1 µM; and `CC(=O)N(C)c1ccc(Nc2nc(NC3CC3)c(C(N)=O)c(=O)[nH]2)cc1` [Example 58, 4-(cyclopropylamino)-2-(4-(N-methylacetamido)phenylamino)-6-oxo-1,6-dihydropyrimidine-5-carboxamide], with greater than 1 µM.
For `CC(=O)N1CCN(c2ccc(Nc3nc(Nc4cc(C)cc(C)c4)c(C(N)=O)c(=O)[nH]3)cc2)CC1` [Example 59, 2-(4-(4-acetylpiperazin-1-yl)phenylamino)-4-(3,5-dimethylphenylamino)-6-oxo-1,6-dihydropyrimidine-5-carboxamide] the value was greater than 1 µM.
